Measured values reported in the supplement of paper PMC10307832.

Key:
Assay in all cases: relative viability (nuclei count vs DMSO), 5 days (fraction); higher = more cells survive
A-427 = system: A-427
Outline: (§1)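 Relative viability was taken as the ratio of nuclei in treated wells to nuclei in vehicle wells. Lung cancer cell lines in 1536-well plates received compounds by pin tool one day after seeding, either one drug alone or a fixed anchor-drug dose plus five library-drug doses (not always all listed) in √10 steps. Nuclei were counted on 4× images after 5 days of treatment, and values are medians of duplicate plates.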

EKVX = system: EKVX
Outline: as §1

NCI-H596 = system: NCI-H596
Outline: as §1

HARA = system: HARA
Outline: as §1

HCC-15 = system: HCC-15
Outline: as §1

COR-L23 = system: COR-L23
Outline: as §1

201T = system: 201T
Outline: as §1

NCI-H1975 = system: NCI-H1975
Outline: as §1

NCI-H358 = system: NCI-H358
Outline: as §1

SW 900 = system: SW 900
Outline: as §1

COR-L 105 = system: COR-L 105
Outline: as §1

NCI-H650 = system: NCI-H650
Outline: as §1

HCC-44 = system: HCC-44
Outline: as §1

NCI-H1666 = system: NCI-H1666
Outline: as §1

NCI-H1437 = system: NCI-H1437
Outline: as §1

HCC-827 = system: HCC-827
Outline: as §1

SK-MES-1 = system: SK-MES-1
Outline: as §1

NCI-H23 = system: NCI-H23
Outline: as §1

NCI-H1792 = system: NCI-H1792
Outline: as §1

NCI-H838 = system: NCI-H838
Outline: as §1

BEN = system: BEN
Outline: as §1

NCI-H441 = system: NCI-H441
Outline: as §1

LK-2 = system: LK-2
Outline: as §1

## NC(=O)Nc1cc(-c2cccc(F)c2)sc1C(=O)N[C@H]1CCCNC1 [AZD7762] + Nc1nc2[nH]cc(CCc3ccc(C(=O)N[C@@H](CCC(=O)O)C(=O)O)cc3)c2c(=O)[nH]1 [Pemetrexed] (partner 0.2 µM)
A-427; first compound 0.01 µM
  relative viability: 0.949
A-427; first compound 0.03162 µM
  relative viability: 0.94
A-427; first compound 0.1 µM
  relative viability: 1.11
A-427; first compound 0.3162 µM
  relative viability: 0.916
A-427; first compound 1 µM
  relative viability: 0.374
EKVX; first compound 0.01 µM
  relative viability: 0.394
EKVX; first compound 0.03162 µM
  relative viability: 0.346
EKVX; first compound 0.1 µM
  relative viability: 0.248
EKVX; first compound 0.3162 µM
  relative viability: 0.208
EKVX; first compound 1 µM
  relative viability: 0.152
NCI-H596; first compound 0.01 µM
  relative viability: 0.484
NCI-H596; first compound 0.03162 µM
  relative viability: 0.573
NCI-H596; first compound 0.1 µM
  relative viability: 0.54
NCI-H596; first compound 0.3162 µM
  relative viability: 0.425
NCI-H596; first compound 1 µM
  relative viability: 0.393
HARA; first compound 0.01 µM
  relative viability: 0.23
HARA; first compound 0.03162 µM
  relative viability: 0.25
HARA; first compound 0.1 µM
  relative viability: 0.198
HARA; first compound 0.3162 µM
  relative viability: 0.16
HARA; first compound 1 µM
  relative viability: 0.164
HCC-15; first compound 0.01 µM
  relative viability: 0.213
HCC-15; first compound 0.03162 µM
  relative viability: 0.234
HCC-15; first compound 0.1 µM
  relative viability: 0.232
HCC-15; first compound 0.3162 µM
  relative viability: 0.209
HCC-15; first compound 1 µM
  relative viability: 0.187
COR-L23; first compound 0.01 µM
  relative viability: 0.191
COR-L23; first compound 0.03162 µM
  relative viability: 0.185
COR-L23; first compound 0.1 µM
  relative viability: 0.181
COR-L23; first compound 0.3162 µM
  relative viability: 0.168
COR-L23; first compound 1 µM
  relative viability: 0.131
201T; first compound 0.01 µM
  relative viability: 0.34
201T; first compound 0.03162 µM
  relative viability: 0.293
201T; first compound 0.1 µM
  relative viability: 0.307
201T; first compound 0.3162 µM
  relative viability: 0.284
201T; first compound 1 µM
  relative viability: 0.296
NCI-H1975; first compound 0.01 µM
  relative viability: 0.309
NCI-H1975; first compound 0.03162 µM
  relative viability: 0.27
NCI-H1975; first compound 0.1 µM
  relative viability: 0.254
NCI-H1975; first compound 0.3162 µM
  relative viability: 0.221
NCI-H1975; first compound 1 µM
  relative viability: 0.198
NCI-H358; first compound 0.01 µM
  relative viability: 0.23
NCI-H358; first compound 0.03162 µM
  relative viability: 0.188
NCI-H358; first compound 0.1 µM
  relative viability: 0.19
NCI-H358; first compound 0.3162 µM
  relative viability: 0.149
NCI-H358; first compound 1 µM
  relative viability: 0.128
SW 900; first compound 0.01 µM
  relative viability: 0.533
SW 900; first compound 0.03162 µM
  relative viability: 0.459
SW 900; first compound 0.1 µM
  relative viability: 0.452
SW 900; first compound 0.3162 µM
  relative viability: 0.475
SW 900; first compound 1 µM
  relative viability: 0.374
COR-L 105; first compound 0.01 µM
  relative viability: 0.961
COR-L 105; first compound 0.03162 µM
  relative viability: 1.11
COR-L 105; first compound 0.1 µM
  relative viability: 0.913
COR-L 105; first compound 0.3162 µM
  relative viability: 0.87
COR-L 105; first compound 1 µM
  relative viability: 0.579
NCI-H650; first compound 0.01 µM
  relative viability: 1.01
NCI-H650; first compound 0.03162 µM
  relative viability: 0.891
NCI-H650; first compound 0.1 µM
  relative viability: 0.968
NCI-H650; first compound 0.3162 µM
  relative viability: 0.821
NCI-H650; first compound 1 µM
  relative viability: 0.644
HCC-44; first compound 0.01 µM
  relative viability: 0.608
HCC-44; first compound 0.03162 µM
  relative viability: 0.548
HCC-44; first compound 0.1 µM
  relative viability: 0.534
HCC-44; first compound 0.3162 µM
  relative viability: 0.451
HCC-44; first compound 1 µM
  relative viability: 0.358
NCI-H1666; first compound 0.01 µM
  relative viability: 0.851
NCI-H1666; first compound 0.03162 µM
  relative viability: 0.838
NCI-H1666; first compound 0.1 µM
  relative viability: 0.739
NCI-H1666; first compound 0.3162 µM
  relative viability: 0.594
NCI-H1666; first compound 1 µM
  relative viability: 0.719
NCI-H1437; first compound 0.01 µM
  relative viability: 0.298
NCI-H1437; first compound 0.03162 µM
  relative viability: 0.261
NCI-H1437; first compound 0.1 µM
  relative viability: 0.229
NCI-H1437; first compound 0.3162 µM
  relative viability: 0.206
NCI-H1437; first compound 1 µM
  relative viability: 0.172
HCC-827; first compound 0.01 µM
  relative viability: 0.301
HCC-827; first compound 0.03162 µM
  relative viability: 0.257
HCC-827; first compound 0.1 µM
  relative viability: 0.211
HCC-827; first compound 0.3162 µM
  relative viability: 0.192
HCC-827; first compound 1 µM
  relative viability: 0.148
SK-MES-1; first compound 0.01 µM
  relative viability: 1.01
SK-MES-1; first compound 0.03162 µM
  relative viability: 0.914
SK-MES-1; first compound 0.1 µM
  relative viability: 0.86
SK-MES-1; first compound 0.3162 µM
  relative viability: 0.433
SK-MES-1; first compound 1 µM
  relative viability: 0.237
NCI-H23; first compound 0.01 µM
  relative viability: 0.722
NCI-H23; first compound 0.03162 µM
  relative viability: 0.62
NCI-H23; first compound 0.1 µM
  relative viability: 0.514
NCI-H23; first compound 0.3162 µM
  relative viability: 0.359
NCI-H23; first compound 1 µM
  relative viability: 0.275
NCI-H1792; first compound 0.01 µM
  relative viability: 0.957
NCI-H1792; first compound 0.03162 µM
  relative viability: 0.822
NCI-H1792; first compound 0.1 µM
  relative viability: 0.844
NCI-H1792; first compound 0.3162 µM
  relative viability: 0.732
NCI-H1792; first compound 1 µM
  relative viability: 0.421
NCI-H838; first compound 0.01 µM
  relative viability: 0.25
NCI-H838; first compound 0.03162 µM
  relative viability: 0.192
NCI-H838; first compound 0.1 µM
  relative viability: 0.177
NCI-H838; first compound 0.3162 µM
  relative viability: 0.177
NCI-H838; first compound 1 µM
  relative viability: 0.167
BEN; first compound 0.01 µM
  relative viability: 0.804
BEN; first compound 0.03162 µM
  relative viability: 0.902
BEN; first compound 0.1 µM
  relative viability: 0.757
BEN; first compound 0.3162 µM
  relative viability: 0.809
BEN; first compound 1 µM
  relative viability: 0.606
NCI-H441; first compound 0.01 µM
  relative viability: 0.267
NCI-H441; first compound 0.03162 µM
  relative viability: 0.288
NCI-H441; first compound 0.1 µM
  relative viability: 0.294
NCI-H441; first compound 0.3162 µM
  relative viability: 0.275
NCI-H441; first compound 1 µM
  relative viability: 0.271
LK-2; first compound 0.01 µM
  relative viability: 0.316
LK-2; first compound 0.03162 µM
  relative viability: 0.358
LK-2; first compound 0.1 µM
  relative viability: 0.274
LK-2; first compound 0.3162 µM
  relative viability: 0.214
LK-2; first compound 1 µM
  relative viability: 0.169
